Where two headings read alike, the source gives them in different places.
How the values were obtained:
RPS6KB1 = target: T1, RPS6KB1 (Homo sapiens, UniProt P23443); experiment: Kinase Profiler, residual kinase activity; assay type: biochemical; details: read-out: percentage of the remaining kinase activity
T1 construct: purchased Research Biology Corp. (http://www.reactionbiology.com)

LCK = LCK (Homo sapiens, UniProt P06239); experiment: Kinase Profiler, residual kinase activity; assay type: biochemical; details: read-out: percentage of the remaining kinase activity
ABL1 = ABL1 (Homo sapiens, UniProt P00519); experiment: Kinase Profiler, residual kinase activity; assay type: biochemical; details: read-out: percentage of the remaining kinase activity
FGFR1 = FGFR1 (Homo sapiens, UniProt P11362); experiment: Kinase Profiler, residual kinase activity; assay type: biochemical; details: read-out: percentage of the remaining kinase activity
CHEK2 = CHEK2 (Homo sapiens, UniProt O96017); experiment: Kinase Profiler, residual kinase activity; assay type: biochemical; details: read-out: percentage of the remaining kinase activity
KDR = KDR (Homo sapiens, UniProt P35968); experiment: Kinase Profiler, residual kinase activity; assay type: biochemical; details: read-out: percentage of the remaining kinase activity
Summary of the method: (§1)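 Outsourced panel screen: 40 protein kinases, residual activity reported per kinase.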

PIM1 = PIM1 (Homo sapiens, UniProt P11309); experiment: Kinase Profiler, residual kinase activity; assay type: biochemical; details: read-out: percentage of the remaining kinase activity
Summary of the method: as §1

MAP2K1 = target: T2, MAP2K1 (Homo sapiens, UniProt Q02750); experiment: Kinase Profiler, residual kinase activity; assay type: biochemical; details: read-out: percentage of the remaining kinase activity
T2 construct: purchased Research Biology Corp. (http://www.reactionbiology.com)
Summary of the method: as §1

STK4 = target: T3, STK4 (Homo sapiens, UniProt Q13043); experiment: Kinase Profiler, residual kinase activity; assay type: biochemical; details: read-out: percentage of the remaining kinase activity
T3 construct: purchased Research Biology Corp. (http://www.reactionbiology.com)
T3 sequence (Q13043 1-487): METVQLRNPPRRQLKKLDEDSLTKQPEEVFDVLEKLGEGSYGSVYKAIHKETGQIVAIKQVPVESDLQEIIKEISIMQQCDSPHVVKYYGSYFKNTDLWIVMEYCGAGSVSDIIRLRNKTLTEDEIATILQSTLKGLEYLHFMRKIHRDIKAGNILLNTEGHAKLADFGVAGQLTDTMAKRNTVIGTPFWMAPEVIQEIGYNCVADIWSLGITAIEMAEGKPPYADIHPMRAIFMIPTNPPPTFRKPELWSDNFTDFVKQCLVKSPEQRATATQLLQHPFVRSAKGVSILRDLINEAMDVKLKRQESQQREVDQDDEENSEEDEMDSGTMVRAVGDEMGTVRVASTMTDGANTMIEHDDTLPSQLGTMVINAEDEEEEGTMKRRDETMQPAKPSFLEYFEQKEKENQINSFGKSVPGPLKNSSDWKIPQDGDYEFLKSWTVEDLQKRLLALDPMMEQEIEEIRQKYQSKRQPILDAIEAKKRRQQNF
Summary of the method: as §1

GSK3B = GSK3B (Homo sapiens, UniProt P49841); experiment: Kinase Profiler, residual kinase activity; assay type: biochemical; details: read-out: percentage of the remaining kinase activity
Summary of the method: as §1

ALK = ALK (Homo sapiens, UniProt Q9UM73); experiment: Kinase Profiler, residual kinase activity; assay type: biochemical; details: read-out: percentage of the remaining kinase activity
Summary of the method: as §1

DAPK1 = DAPK1 (Homo sapiens, UniProt P53355); experiment: Kinase Profiler, residual kinase activity; assay type: biochemical; details: read-out: percentage of the remaining kinase activity
Summary of the method: as §1

[1] = system: 40 types of protein kinases; experiment: Selectivity over the panel of 40 protein kinases; assay type: biochemical; details: 500 nM; inhibited = residual kinase activity less than or equal to 50%
Description: Kinase Profiler services provided by […]. (http://www.reactionbiology.com) were used to analyze the data of the 9 type-S protein kinase inhibitors against the 40 types of protein kinases.

[2] = system: gastric cancer cell line MKN-45; experiment: MTT cell survival test on gastric cancer cells; assay type: cell-based; details: Homo sapiens; MKN-45, MTT, 24 hours, serum-free media; read-out: IC50 value for inhibiting gastric cancer cell line MKN-45
Description: Gastric cancer cell line MKN-45 was incubated on a 96-well plate (about 1×10^4 cells/well). After the cells adhered, the 96-well plate was replaced with serum-free culture media, and different concentrations (from 40 to 0.039 μM) of drugs were added. After incubating at 37° C. for 24 hours, PBS was used for washing three times, and MTT culture media was added to react with cells. Violet crystals appeared after two hours. Then, DMSO (50 μl) was added to terminate the reaction. A light-absorbing micro-volume spectrophotometer (ELISA reader) was used, and an absorption value of 570 nm was obtained. A blank value was deducted from each of the obtained absorbance values, and then the difference was divided by the value of the control group to calculate a percentage, i.e., a cell survival rate. The experiment was repeated three times to obtain an average value and a standard deviation.

Chain of ABL1 (P00519 whole entry): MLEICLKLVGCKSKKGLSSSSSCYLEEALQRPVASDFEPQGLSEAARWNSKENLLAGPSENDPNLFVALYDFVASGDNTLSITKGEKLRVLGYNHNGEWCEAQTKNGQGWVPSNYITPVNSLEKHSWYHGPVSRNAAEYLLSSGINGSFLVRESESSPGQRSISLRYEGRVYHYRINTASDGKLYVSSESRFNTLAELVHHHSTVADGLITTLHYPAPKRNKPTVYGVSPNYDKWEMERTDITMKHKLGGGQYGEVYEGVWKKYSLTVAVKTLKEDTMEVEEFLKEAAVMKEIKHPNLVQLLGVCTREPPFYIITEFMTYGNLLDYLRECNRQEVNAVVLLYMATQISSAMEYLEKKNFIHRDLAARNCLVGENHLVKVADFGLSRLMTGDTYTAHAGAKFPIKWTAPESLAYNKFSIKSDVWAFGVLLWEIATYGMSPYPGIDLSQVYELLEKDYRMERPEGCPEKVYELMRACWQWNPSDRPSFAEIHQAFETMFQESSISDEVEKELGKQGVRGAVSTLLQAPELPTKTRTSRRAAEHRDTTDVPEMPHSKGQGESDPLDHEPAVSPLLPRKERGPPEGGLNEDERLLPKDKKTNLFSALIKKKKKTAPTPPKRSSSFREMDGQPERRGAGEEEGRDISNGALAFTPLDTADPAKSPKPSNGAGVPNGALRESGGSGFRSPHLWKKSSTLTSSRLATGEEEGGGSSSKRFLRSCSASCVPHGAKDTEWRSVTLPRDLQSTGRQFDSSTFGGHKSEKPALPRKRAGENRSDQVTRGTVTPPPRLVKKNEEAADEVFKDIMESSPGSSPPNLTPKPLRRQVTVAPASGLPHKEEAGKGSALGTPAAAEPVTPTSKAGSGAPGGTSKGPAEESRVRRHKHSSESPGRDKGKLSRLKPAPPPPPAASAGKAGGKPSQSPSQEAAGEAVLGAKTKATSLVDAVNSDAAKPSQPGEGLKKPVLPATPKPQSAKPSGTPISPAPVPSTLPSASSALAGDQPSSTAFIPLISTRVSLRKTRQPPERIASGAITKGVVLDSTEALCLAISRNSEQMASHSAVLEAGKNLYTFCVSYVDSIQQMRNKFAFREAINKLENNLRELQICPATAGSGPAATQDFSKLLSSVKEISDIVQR
T1 sequence (P23443 whole entry): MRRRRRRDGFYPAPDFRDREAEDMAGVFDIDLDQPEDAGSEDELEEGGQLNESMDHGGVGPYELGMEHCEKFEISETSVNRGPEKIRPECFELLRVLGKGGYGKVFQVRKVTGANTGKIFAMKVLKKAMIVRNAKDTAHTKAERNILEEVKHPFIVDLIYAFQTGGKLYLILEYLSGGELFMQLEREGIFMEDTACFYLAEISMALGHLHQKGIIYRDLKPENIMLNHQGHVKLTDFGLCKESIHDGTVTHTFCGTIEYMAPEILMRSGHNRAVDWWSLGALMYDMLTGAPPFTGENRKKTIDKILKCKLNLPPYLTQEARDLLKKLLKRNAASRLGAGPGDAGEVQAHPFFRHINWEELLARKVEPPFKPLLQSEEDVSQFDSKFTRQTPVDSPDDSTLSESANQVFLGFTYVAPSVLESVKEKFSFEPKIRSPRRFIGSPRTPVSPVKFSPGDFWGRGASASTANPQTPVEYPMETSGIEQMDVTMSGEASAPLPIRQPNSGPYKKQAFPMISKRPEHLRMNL
Chain of GSK3B (P49841 whole entry): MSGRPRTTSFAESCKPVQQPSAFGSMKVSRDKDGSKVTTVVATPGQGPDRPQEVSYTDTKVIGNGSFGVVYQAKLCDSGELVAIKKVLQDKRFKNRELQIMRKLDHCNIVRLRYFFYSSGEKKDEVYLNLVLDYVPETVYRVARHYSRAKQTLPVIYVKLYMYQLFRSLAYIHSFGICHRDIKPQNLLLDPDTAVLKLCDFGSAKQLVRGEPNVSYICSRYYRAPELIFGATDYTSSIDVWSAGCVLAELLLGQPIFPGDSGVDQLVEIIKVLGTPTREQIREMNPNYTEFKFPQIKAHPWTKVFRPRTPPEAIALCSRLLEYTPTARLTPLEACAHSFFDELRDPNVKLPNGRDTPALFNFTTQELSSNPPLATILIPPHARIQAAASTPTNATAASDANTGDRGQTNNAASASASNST
Chain of DAPK1 (P53355 whole entry): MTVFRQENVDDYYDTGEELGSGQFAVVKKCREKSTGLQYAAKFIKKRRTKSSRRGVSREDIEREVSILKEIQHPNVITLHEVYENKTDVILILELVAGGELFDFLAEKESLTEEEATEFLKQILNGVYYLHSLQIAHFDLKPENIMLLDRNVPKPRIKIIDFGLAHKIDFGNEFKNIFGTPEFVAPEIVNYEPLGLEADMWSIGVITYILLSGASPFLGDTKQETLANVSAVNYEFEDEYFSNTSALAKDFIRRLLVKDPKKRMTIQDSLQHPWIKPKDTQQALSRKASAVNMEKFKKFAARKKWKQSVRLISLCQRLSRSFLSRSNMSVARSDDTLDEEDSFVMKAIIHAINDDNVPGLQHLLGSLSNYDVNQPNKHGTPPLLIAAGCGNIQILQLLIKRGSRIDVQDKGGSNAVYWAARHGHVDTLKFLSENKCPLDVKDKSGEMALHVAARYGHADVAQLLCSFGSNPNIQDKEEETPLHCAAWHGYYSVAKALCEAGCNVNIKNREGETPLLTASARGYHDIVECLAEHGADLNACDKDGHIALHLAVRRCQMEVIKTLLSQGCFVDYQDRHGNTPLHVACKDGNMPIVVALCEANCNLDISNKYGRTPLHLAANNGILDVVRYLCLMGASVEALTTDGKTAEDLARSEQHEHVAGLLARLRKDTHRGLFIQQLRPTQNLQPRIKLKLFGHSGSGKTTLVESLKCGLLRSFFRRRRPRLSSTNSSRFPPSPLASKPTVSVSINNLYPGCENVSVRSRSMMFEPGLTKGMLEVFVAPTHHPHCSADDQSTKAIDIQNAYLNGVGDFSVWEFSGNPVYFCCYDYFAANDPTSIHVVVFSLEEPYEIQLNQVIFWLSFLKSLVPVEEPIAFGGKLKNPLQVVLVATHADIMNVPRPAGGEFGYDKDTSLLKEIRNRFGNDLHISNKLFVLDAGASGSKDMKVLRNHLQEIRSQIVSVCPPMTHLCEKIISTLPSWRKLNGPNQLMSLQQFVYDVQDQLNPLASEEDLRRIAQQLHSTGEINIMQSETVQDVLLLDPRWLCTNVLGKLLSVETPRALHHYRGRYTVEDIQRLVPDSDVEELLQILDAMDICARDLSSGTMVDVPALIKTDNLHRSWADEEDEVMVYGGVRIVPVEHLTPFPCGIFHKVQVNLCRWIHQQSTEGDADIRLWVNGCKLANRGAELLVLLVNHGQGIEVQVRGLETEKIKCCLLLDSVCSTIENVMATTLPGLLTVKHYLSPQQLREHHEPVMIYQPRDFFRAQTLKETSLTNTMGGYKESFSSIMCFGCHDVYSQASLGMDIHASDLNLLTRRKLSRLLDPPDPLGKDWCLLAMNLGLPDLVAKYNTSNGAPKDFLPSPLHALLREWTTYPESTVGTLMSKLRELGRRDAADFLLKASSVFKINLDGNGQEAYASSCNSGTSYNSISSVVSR
Chain of PIM1 (P11309 whole entry): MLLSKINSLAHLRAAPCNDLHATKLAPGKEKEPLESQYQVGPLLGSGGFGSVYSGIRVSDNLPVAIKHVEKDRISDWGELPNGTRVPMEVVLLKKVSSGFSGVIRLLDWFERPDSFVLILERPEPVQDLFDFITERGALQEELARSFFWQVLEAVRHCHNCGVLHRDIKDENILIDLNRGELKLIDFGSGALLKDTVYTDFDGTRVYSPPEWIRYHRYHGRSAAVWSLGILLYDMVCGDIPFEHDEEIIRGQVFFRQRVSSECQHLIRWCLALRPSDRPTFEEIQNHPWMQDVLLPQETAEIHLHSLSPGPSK
Chain of FGFR1 (P11362 22-822): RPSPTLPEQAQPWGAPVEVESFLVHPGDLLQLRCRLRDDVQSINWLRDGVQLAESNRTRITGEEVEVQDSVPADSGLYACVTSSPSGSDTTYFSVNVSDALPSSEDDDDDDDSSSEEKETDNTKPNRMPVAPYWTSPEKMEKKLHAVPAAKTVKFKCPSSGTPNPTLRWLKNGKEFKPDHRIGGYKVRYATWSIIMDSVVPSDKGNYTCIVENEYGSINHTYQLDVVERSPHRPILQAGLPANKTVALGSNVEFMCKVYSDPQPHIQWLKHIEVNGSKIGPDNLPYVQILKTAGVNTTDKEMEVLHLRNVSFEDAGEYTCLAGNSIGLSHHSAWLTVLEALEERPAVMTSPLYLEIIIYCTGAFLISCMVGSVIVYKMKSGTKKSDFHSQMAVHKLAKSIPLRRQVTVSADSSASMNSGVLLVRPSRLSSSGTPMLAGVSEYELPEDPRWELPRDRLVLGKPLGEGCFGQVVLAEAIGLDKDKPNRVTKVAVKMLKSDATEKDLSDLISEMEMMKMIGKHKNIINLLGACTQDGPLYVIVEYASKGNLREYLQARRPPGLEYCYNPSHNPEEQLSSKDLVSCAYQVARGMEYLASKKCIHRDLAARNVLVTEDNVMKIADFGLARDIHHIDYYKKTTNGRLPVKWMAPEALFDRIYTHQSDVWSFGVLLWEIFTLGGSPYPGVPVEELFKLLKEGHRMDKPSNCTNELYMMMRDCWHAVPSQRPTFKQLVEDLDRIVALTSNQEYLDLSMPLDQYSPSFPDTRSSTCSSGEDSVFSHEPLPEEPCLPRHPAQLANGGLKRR
T2 sequence (Q02750 whole entry): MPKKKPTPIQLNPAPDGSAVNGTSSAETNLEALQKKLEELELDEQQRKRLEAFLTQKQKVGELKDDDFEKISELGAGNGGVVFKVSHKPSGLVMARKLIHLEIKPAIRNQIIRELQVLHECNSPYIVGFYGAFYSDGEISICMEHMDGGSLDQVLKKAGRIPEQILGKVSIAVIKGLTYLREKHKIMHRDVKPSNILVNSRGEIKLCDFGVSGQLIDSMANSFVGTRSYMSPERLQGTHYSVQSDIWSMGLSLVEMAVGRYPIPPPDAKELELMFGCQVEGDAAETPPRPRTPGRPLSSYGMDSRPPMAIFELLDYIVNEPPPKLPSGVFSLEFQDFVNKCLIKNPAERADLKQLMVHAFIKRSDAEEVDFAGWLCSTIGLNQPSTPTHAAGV

Structure (SMILES)	remaining activity at 0.5 µM (RPS6KB1; RPS6KB1, inhibitor at 500 nM) [%]	remaining activity at 0.5 µM (LCK; LCK, inhibitor at 500 nM) [%]	remaining activity at 0.5 µM (ABL1; ABL1, inhibitor at 500 nM) [%]	remaining activity at 0.5 µM (FGFR1; FGFR1, inhibitor at 500 nM) [%]	remaining activity at 0.5 µM (CHEK2; CHEK2, inhibitor at 500 nM) [%]	remaining activity at 0.5 µM (KDR; KDR, inhibitor at 500 nM) [%]	remaining activity at 0.5 µM (PIM1; PIM1, inhibitor at 500 nM) [%]	remaining activity at 0.5 µM (MAP2K1; MAP2K1, inhibitor at 500 nM) [%]	remaining activity at 0.5 µM (STK4; STK4, inhibitor at 500 nM) [%]	remaining activity at 0.5 µM (GSK3B; GSK3B, inhibitor at 500 nM) [%]	remaining activity at 0.5 µM (ALK; ALK, inhibitor at 500 nM) [%]	remaining activity at 0.5 µM (DAPK1; DAPK1, inhibitor at 500 nM) [%]	other results
COC1C(N(C)C(=O)C(N)Cc2c[nH]cn2)CC2OC1(C)n1c3ccccc3c3c4c(c5c6ccccc6n2c5c31)C(=O)NC4 (stereo not drawn) [Compound 1]	7.9	2.1	77.6	5.1	30.3	6.5	2.4	79.8	1.8	17.9	3.3	26	–
COC1C(N(C)C(=O)C(N)Cc2cn(C(=O)OC(C)(C)C)c3ccccc23)CC2OC1(C)n1c3ccccc3c3c4c(c5c6ccccc6n2c5c31)C(=O)NC4 (stereo not drawn) [Compound 2]	72.4	97	109	101	95.8	102	88.9	105	72.8	94.2	85.4	107	percentage of the 40 types of protein kinases inhibited [1]: 2.5%
COC1C(N(C)CCOc2cccc([N+](=O)[O-])c2)CC2OC1(C)n1c3ccccc3c3c4c(c5c6ccccc6n2c5c31)C(=O)NC4 (stereo not drawn) [Compound 8]	–	–	–	–	–	–	–	–	–	–	–	–	remaining activity at 0.5 µM (RPS6KB1): 11.8%; remaining activity at 0.5 µM (LCK): 24%; remaining activity at 0.5 µM (ABL1): 92.5%; remaining activity at 0.5 µM (FGFR1): 30.1%; remaining activity at 0.5 µM (CHEK2): 46.7%; remaining activity at 0.5 µM (KDR): 43.3%; remaining activity at 0.5 µM (PIM1): 24.6%; remaining activity at 0.5 µM (MAP2K1): 72%; remaining activity at 0.5 µM (STK4): 2.7%; remaining activity at 0.5 µM (GSK3B): 51.8%; remaining activity at 0.5 µM (ALK): 19.5%; remaining activity at 0.5 µM (DAPK1): 89.8%
CN[C@@H]1C[C@H]2O[C@@](C)([C@@H]1OC)n1c3ccccc3c3c4c(c5c6ccccc6n2c5c31)C(=O)NC4 [STU, staurosporine, reference compound]	–	–	–	–	–	–	–	11.5	–	–	–	–	remaining activity at 0.5 µM (PIM1): 0.6%; remaining activity at 0.5 µM (STK4): 5.5%; remaining activity at 0.5 µM (ALK): -0.3%; remaining activity at 0.5 µM (DAPK1): 1.9%

The next lines start with results.

remaining activity at 0.5 µM (RPS6KB1; RPS6KB1, inhibitor at 500 nM) [%]	remaining activity at 0.5 µM (LCK; LCK, inhibitor at 500 nM) [%]	remaining activity at 0.5 µM (ABL1; ABL1, inhibitor at 500 nM) [%]	remaining activity at 0.5 µM (FGFR1; FGFR1, inhibitor at 500 nM) [%]	remaining activity at 0.5 µM (CHEK2; CHEK2, inhibitor at 500 nM) [%]	remaining activity at 0.5 µM (KDR; KDR, inhibitor at 500 nM) [%]	remaining activity at 0.5 µM (PIM1; PIM1, inhibitor at 500 nM) [%]	remaining activity at 0.5 µM (MAP2K1; MAP2K1, inhibitor at 500 nM) [%]	remaining activity at 0.5 µM (STK4; STK4, inhibitor at 500 nM) [%]	remaining activity at 0.5 µM (GSK3B; GSK3B, inhibitor at 500 nM) [%]	remaining activity at 0.5 µM (ALK; ALK, inhibitor at 500 nM) [%]	remaining activity at 0.5 µM (DAPK1; DAPK1, inhibitor at 500 nM) [%]	Structure (SMILES)	other results
15.2	68.8	107	53.3	80.4	50.8	44.2	110	12	86.6	56.7	96.4	COC1C(N(C)C(=O)C(N)Cc2ccc(OC(C)(C)C)cc2)CC2OC1(C)n1c3ccccc3c3c4c(c5c6ccccc6n2c5c31)C(=O)NC4 (stereo not drawn) [Compound 4]	IC50 [2]: 1600 nM; number of types of protein kinases inhibited out of 40 tested [1]: 11; percentage of the 40 types of protein kinases inhibited [1]: 27.5%
11.8	11.5	104	16.6	73.2	16.3	3	103	5.5	29.4	29.1	105	COC1C(N(C)C(=O)C(N)Cc2ccc(O)cc2)CC2OC1(C)n1c3ccccc3c3c4c(c5c6ccccc6n2c5c31)C(=O)NC4 (stereo not drawn) [Compound 5]	–
15	44	97.6	29.5	82.7	42.4	43	101	6	79.7	44.7	101	COC1C(N(C)C(=O)C(N)CCC(=O)OC(C)(C)C)CC2OC1(C)n1c3ccccc3c3c4c(c5c6ccccc6n2c5c31)C(=O)NC4 (stereo not drawn) [Compound 6]	–
9.2	3	68	3.2	47.2	5.4	2.5	74.1	1.9	9.6	4.7	26.2	COC1C(N(C)C(=O)C(N)CCC(=O)O)CC2OC1(C)n1c3ccccc3c3c4c(c5c6ccccc6n2c5c31)C(=O)NC4 (stereo not drawn) [Compound 7]	–
11.1	14	84.9	25.7	37.7	43.6	21.8	66.1	1.5	46.6	17.6	116	COC1C(N(C)Cc2ccc(-c3ccccc3)cc2)CC2OC1(C)n1c3ccccc3c3c4c(c5c6ccccc6n2c5c31)C(=O)NC4 (stereo not drawn) [Compound 9]	–
